The source made the active and inactive calls. The rule behind the calls is not given here. Square brackets hold non-standard residues; d marks the D form. Peptide text beside a SMILES is read from it. sY = N[C@@H](Cc1ccc(OS(=O)(=O)O)cc1)C(=O)O
Assays:
[1] = species: Cavia porcellus; test: Increase in [Ca2+] efflux from guinea pig pancreatic acinar cells measured for 5 mins relative to control; assay type: functional
[2] = species: Cavia porcellus; test: Increase in [Ca2+] efflux from guinea pig pancreatic acinar cells at 3 x 10^-11 M measured for 5 mins relative to control; assay type: functional
[3] = Increase in [Ca2+] efflux from guinea pig pancreatic acinar cells at 10^-8 M assessed per minute relative to control; assay type: functional, Cavia porcellus

Structure (SMILES) | Activity [1] | Activity [2] | Activity [3] [%]
CSCC[C@H](NC(=O)[C@H](Cc1c[nH]c2ccccc12)NC(=O)CNC(=O)[C@H](CCSC)NC(=O)[C@@H](N)COS(=O)(=O)O)C(=O)N[C@@H](CC(=O)O)C(=O)N[C@@H](Cc1ccccc1)C(N)=O | Active | – | –
CSCC[C@H](NC(=O)[C@H](Cc1c[nH]c2ccccc12)NC(=O)CNC(=O)[C@H](CCSC)NC(=O)[C@@H](N)Cc1ccc(O)cc1)C(=O)N[C@@H](CC(=O)O)C(=O)N[C@@H](Cc1ccccc1)C(N)=O (H-YMGWMDF-NH2) | Active | – | –
CSCC[C@H](NC(=O)[C@H](Cc1c[nH]c2ccccc12)NC(=O)CNC(=O)[C@H](CCSC)NC(=O)[C@@H](N)Cc1ccc(OS(=O)(=O)O)cc1)C(=O)N[C@@H](CC(=O)O)C(=O)N[C@@H](Cc1ccccc1)C(N)=O (H-[sY]MGWMDF-NH2) | Active | Active | 26.2
CSCC[C@H](NC(=O)[C@H](Cc1c[nH]c2ccccc12)NC(=O)CNC(=O)[C@H](CCSC)NC(=O)[C@@H](N)CO)C(=O)N[C@@H](CC(=O)O)C(=O)N[C@@H](Cc1ccccc1)C(N)=O (H-SMGWMDF-NH2) | Active | – | –
